According to US7273864B2, “Compositions and methods for inducing osteogenesis” (The Scripps Research Institute, priority 2002, dated 2007):

Columns and labels:
[1] = test system: Cbfa1/Runx2 gene promoter; test: Cbfa1/Runx2 reporter gene assay in C2C12 cells; type: cell-based, mouse
Excerpt: (§1) Cbfa1/Runx2 Reporter Gene Assay: The murine Cbfa1/Runx2 gene promoter region (1818 bp) was amplified by PCR from mouse genomic DNA library (Clontech) using the following primers: The resulting PCR product was inserted into Topo cloning vector (Invitrogen), amplified and sequenced. The resulting plasmid was digested with restriction enzymes Mlu and XhoI (New England Biolab) and the 1.8 kb fragment was inserted into the Mlu/XhoI cloning sites in pGL3-BV luciferase reporter vector (Promega). For transient transfection assays, cells were seeded in a 6-well plate at a density of 30,000 cells/well in 2 mL of growth medium. After an overnight incubation, the cells reached 80% confluency. Plasmid DNA (1 μg) was transfected into cells using 3 μL of Fugene 6 transfection reagent (Roche) using the manufacturer's protocol. After 8 hours, the transfected cells were plated into 96-well assay plates (Corning) and treated with 300 ng/mL of recombinant human bone morphogenetic protein 4 (BMP-4) (Sigma), 1% DMSO (Sigma) or different concentrations of Compound A (dissolved in DMSO). The cells were incubated for 4 days, then the luciferase activity in the cells was assayed using the Bright-Glo luciferase assay kit (Promega) using the manufacturer's protocol. Luminescence signals were detected by Acquest AD (Molecular Devices) plate reader. […]

C3H10T1/2 cells [2] = test: Morphology of C3H10T1/2 cells under light microscopy; type: cell-based, mouse; conditions: 2 μM for 4 days
Procedure: C3H10T1/2 cells were treated with DMSO (1%) and Compound A (purmorphamine) (2 μM) for 4 days. C2C12 cells were treated with DMSO (1%), Compound A (purmorphamine) (2 μM) or BMP-4 (300 ng/mL) for 4 days. The morphology of the cells was examined under light microscopy.

C3H10T1/2 cells [3] = test: Alkaline phosphatase (ALP) enzymatic assay in C3H10T1/2 cells; type: cell-based, mouse
Procedure: Alkaline Phosphatase Assay: C3H10T1/2 cells were expanded in T175 flasks; cells at the 13th passage were detached by trypsin/EDTA and diluted in the growth media. The resulting cell suspension was then plated into black clear bottom 384-well plates (Greiner) with 2500 cells/well in 100 μL growth media using a Multi-dropTM liquid delivery system (Titertek Instruments). After an overnight incubation, cells were attached to the bottom of the wells. A stock solution of Compound A in DMSO (500 nL) was delivered into corresponding well using a Mini TrakTM multiposition dispenser system (Packard BioScience) to make the final concentration of 5 μM of each compound. Cells were then incubated at 37° C. in 5% CO2. After 4 days, the media was removed and 10 μL of Passive Lysis Buffer (Promega) was added into each well. After 5 min, 10 μL of alkaline phosphatase substrate solution (1 mM in pH 10 buffer, 2'-[2'-benzothiazoyl]-6'-hydroxybenzothiazole phosphate (Promega) was added to each well. After a 15 minute incubation at room temperature, the plates were read on an Acquest high-throughput plate reader (Molecular Devices) using the manufacturer's protocol. C3H10T1/2 cells were treated with DMSO (control), BMP-4(300 ng/mL), BMP-4 (100 ng/mL) and Compound A (1 μM), or 0.5 μ[…], or 10 μM Compound A. Alkaline phosphatase (ALP) activity was measured as described in Example 2 above, after two, four, and six days of treatment.

C3H10T1/2 cells [4] = test: Histochemical staining for endogenous alkaline phosphatase expression in C3H10T1/2 cells; type: cell-based, mouse; conditions: 4 days; for cells stained positive for ALP: Compound A 2 μM, BMP-4 300 ng/mL
Procedure: Histochemical Staining for Endogenous Alkaline Phosphatase Expression: C3H10T1/2 cells were seeded in 96-well assay plates (Corning) at a density of 10,000 cells/well, and treated with 300 ng/mL of BMP-4, 1% DMSO, 2 μM of Compound A, or 100 ng/mL of BMP and 1 μM of Compound A for 4 days. The cells were then washed 3 times with 200 μL PBS and fixed by a 15 minute incubation in a 10% formalin solution (Sigma). The fixed cells were washed again with 3 times with 200 μL PBS and stained with the Alkaline Phosphatase Staining Kit 86R (Sigma Diagnostics) using the manufacturer's protocol. The images were taken on a Nikon Eclipse TE300 microscope, and ALP positive cells were counted manually from the images.
C3H10T1/2 cells were treated with DMSO (a), 300 ng/mL of BMP-4 (b), 2 μM of Compound A (c), and 100 ng/mL of BMP and 1 μM of Compound A (d) for 4 days and stained for ALP activity. ALP positive cells were stained red and the cell nuclei were stained blue.

MC3T3-E1 cells = test: Terminal differentiation of MC3T3-E1 pre-osteoblast cells; type: cell-based, mouse
Excerpt: Mouse MC3T3-E1 cells are progenitor cells committed to an osteoblast lineage. […] Since MC3T3-E1 cells already have high levels of endogenous Cbfa1/Runx2, slight up-regulation of this gene may be sufficient to promote terminal differentiation (see, e.g., Xiao et al., J. Cell. Biochem. 74:596 (1999) and Wang et al., J. Bone. Miner. Res. 14:893 (1999)). The change of Cbfa1/Runx2 reporter activity in stably transfected MC3T3-E1 cells is not dramatic when treated with Compound A.
(§2) 3T3-L1 cells, C2C12 cells, and MC-3T3E1 cells were treated with DMSO (control), BMP-4(300 ng/mL), BMP-4 (100 ng/mL) and Compound A (1 μM), or 0.1 μM, 0.5 μM, 1 μM, 5 μM, or 10 μM Compound A. ALP activity was measured as described in Example 1 above, after four days of treatment.

[5] = test system: Cbfa1/Runx2 gene promoter; test: Cbfa1/Runx2 reporter gene assay, transiently transfected C3H10T1/2 cells; type: cell-based, mouse
Excerpt: as §1

3T3-L1 cells = test: Alkaline phosphatase (ALP) activity in 3T3-L1 pre-adipocyte cells; type: cell-based, mouse
Procedure: Alkaline Phosphatase Assay: C3H10T1/2 cells were expanded in T175 flasks; cells at the 13th passage were detached by trypsin/EDTA and diluted in the growth media. The resulting cell suspension was then plated into black clear bottom 384-well plates (Greiner) with 2500 cells/well in 100 μL growth media using a Multi-drop™ liquid delivery system (Titertek Instruments). After an overnight incubation, cells were attached to the bottom of the wells. A stock solution of Compound A in DMSO (500 nL) was delivered into corresponding well using a Mini Trak™ multiposition dispenser system (Packard BioScience) to make the final concentration of 5 μM of each compound. Cells were then incubated at 37° C. in 5% CO2. […] After 5 min, 10 μL of alkaline phosphatase substrate solution (1 mM in pH 10 buffer, 2′-[2′-benzothiazoyl]-6′-hydroxybenzothiazole phosphate (Promega) was added to each well. After a 15 minute incubation at room temperature, the plates were read on an Acquest high-throughput plate reader (Molecular Devices) using the manufacturer's protocol.
as §2

[6] = test system: Cbfa1/Runx2 gene promoter; test: Cbfa1/Runx2 reporter gene assay in 3T3-L1 cells; type: cell-based, mouse; conditions: 3T3-L1 pre-adipocyte cells
Excerpt: as §1

[7] = test system: Cbfa1/Runx2 gene promoter; test: Cbfa1/Runx2 reporter gene assay, stably transfected MC3T3-E1 cells; type: cell-based, mouse
Excerpt: as §1, with “For transient transfection assays, cells were seeded in a 6-well plate at a density of 30,000 cells/well in 2 mL of growth medium.” left out, “reader. Due to the low transfection efficiency of MC3T3-E1 cells, the Cbfa1/Runx2 reporter assay was carried out with stably transfected MC3T3-E1 cells.” for “reader.”

[8] = test system: alkaline phosphatase, collagen type I and osteoponin; test: Morphological and transcriptional analysis of osteogenesis (FIG. 5); type: cell-based

| EC50 (C3H10T1/2 cells [3]; Mus musculus, C3H 10T1/2, ALP enzymatic assay, C3H10T1/2 cells) | expression of alkaline phosphatase, collagen type I and osteoponin ([8]; FIG. 5A) | Molecule | Cbfa1/Runx2 gene expression [1] | morphology of the cells (C3H10T1/2 cells [2]) | effectiveness in inducing the expression of ALP compared with BMP-4 (C3H10T1/2 cells [3]; C3H10T1/2 cells, FIG. 1) | increase in ALP (C3H10T1/2 cells [3]; after treatment for 4 days, compared with 1% DMSO treatment) | cells stained positive for ALP (C3H10T1/2 cells [4]) | terminal differentiation of MC3T3-E1 cells (MC3T3-E1 cells) | Cbfa1 gene upregulation ([5]; C3H10T1/2 cells, FIG. 4B) | increase in Cbfa1/Runx2 reporter activity ([5]; treatment for 4 days, transient transfection) | increase in ALP level (3T3-L1 cells; optimal concentration of 5 μM) | Cbfa1/Runx2 expression [6] | change of Cbfa1/Runx2 reporter activity [7] | DNA microarray analysis ([8]; FIG. 5B) | ALP expression level of induced cells compared to cells treated with Compound A (C3H10T1/2 cells [4]; histochemical staining) | induction of ALP expression (3T3-L1 cells; BMP-4 alone) |
| --- | --- | --- | --- | --- | --- | --- | --- | --- | --- | --- | --- | --- | --- | --- | --- | --- |
| 1000 nM | induces expression | c1ccc2c(Oc3nc(Nc4ccc(N5CCOCC5)cc4)c4ncn(C5CCCCC5)c4n3)cccc2c1 [Compound A, 2-(1-Naphthoxy)-6-(4-morpholinoanilino)-9-cyclohexylpurine] | can be induced by Compound A to express the Cbfa1/Runx2 gene | changed from fibroblast (long and spindle-shaped) to osteocyte (small and round) | more effective than BMP-4 | > 50 fold | more than 80% | promote the terminal differentiation | induces Cbfa1 gene upregulation | more than 6 fold | 9 fold | induces Cbfa1/Runx2 expression | not dramatic | induces expression of a number of transcription factors and proteins |  |  |
|  |  | BMP-4: recombinant human bone morphogenetic protein 4 (BMP-4) (Sigma) (protein, UniProt P12644 293-408, looked up) Bone morphogenetic protein 4: SPKHHSQRARKKNKNCRRHSLYVDFSDVGWNDWIVAPPGYQAFYCHGDCPFPLADHLNSTNHAIVQTLVNSVNSSIPKACCVPTELSAISMLYLDEYDKVVLKNYQEMVVEGCGCR |  |  |  |  | 40% | promote the terminal differentiation |  |  |  |  |  |  | higher expression level of ALP | more than 40 fold |
